Among the data in PubChem BioAssay (NCI) are TGI and GI50 values, retold here.

What all share (test): growth of human tumour cells (NCI), 48 h
For test [1], the system named is BT-549 breast.
In test [2] the test system is NCI-H460 lung.
The subject of test [3] is MDA-MB-231 breast.
The subject of test [4] is COLO 205 colon.
Test [5] concerns SK-MEL-5 melanoma.
For test [6], the system named is TK-10 renal.
The subject of test [7] is CAKI-1 renal.
In test [8] the test system is NCI/ADR-RES ovarian.
In test [9] the test system is RXF 393 renal.
Test [10] deals with SF-295 CNS.

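96-well plates; 48 h exposure; 5 concentrations. Endpoints by linear interpolation between flanking doses. Not reached: highest tested concentration assigned. GI50: concentration for 50% inhibition of growth. TGI: concentration producing complete growth inhibition.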 A value given as a limit tells only on which side of the number the result lay.

As to `N#Cc1c(N)n(-c2cccc(C(=O)O)c2)c(=O)c2cc([N+](=O)[O-])ccc12`, the TGI in [1], in test [2], in test [3], in [4], in [5] and in test [6] was over 100 µM each time. Also, the TGI in test [7] and in test [8] was over 100 µM each time.
Take `CCCCCCOC(=O)/C=C/[C@]1(CO)C/C(=C/CC(C(C)C)C(C)C)C(=O)O1`: the TGI is 22.9 µM in test [1]; 20.5 µM in [2]; 20.3 µM in test [5]; 14 µM in test [6]; 23.7 µM in test [7]; 36.9 µM in [9]. Also, the TGI in test [10] worked out at 29.8 µM; in [8], 28.1 µM.
In the case of `CC(CO)(CO)N1C(=O)C2C3C=CC(C3)C2C1=O` (configuration not stated), the TGI in test [2], in test [3], in [4], in test [5], in test [6] and in [7] was over 100 µM in each case. Further, the TGI in test [9], in test [10] and in test [8] was over 100 µM throughout.
`CC(OC(C)(C)C)[C@H](NC(=O)OCC(Cl)(Cl)Cl)C(=O)O` (some centres not stated): the TGI in test [2], in test [4], in [5], in test [6], in test [7] and in [9] was over 100 µM throughout. The TGI in test [10] is over 100 µM.
Turning to `C=C(C)[C@@H]1CC[C@]2(C(=O)NC3CCCCC3)CC[C@]3(C)[C@H](CC[C@@H]4[C@@]5(C)CCCNC(C)(C)[C@@H]5CC[C@]43C)[C@@H]12`, the GI50 in [2] is 1.78 µM; in test [6], 1.87 µM; in test [7] it was 1560 nM. Besides, the figures for the TGI in test [2], in [6] and in test [7] were 3.3 µM, 3.6 µM and 2.93 µM, respectively.
As to `Cc1nc2c(nc1C)-c1[nH]c3c(c1C(=O)C2=O)CCCC3=O`, the TGI in [2] turned out to be 16.2 µM; in test [3] it was 3.4 µM; in [4], 7.93 µM; in test [5], 3.02 µM; in test [6], 34.8 µM; in test [9], 2.41 µM. In addition, the results for the TGI in test [10] and in test [8] were 3.31 µM and 6.47 µM, respectively.
Regarding `CSc1ncnc2c1ncn2CCC(=O)OC(C)(C)C`, the TGI in [2], in test [3], in test [4], in test [5], in [6] and in test [7] was over 100 µM each time. For the same compound, the TGI in test [9], in [10] and in test [8] was over 100 µM throughout.
On to `CN(C)CCC(=O)c1ccccc1`, for which the TGI in test [2] is over 73.5 µM; in [4], over 57.2 µM; in test [5], over 56.9 µM; in [6] it was over 68.4 µM; in [7] it was 40.5 µM; in [9] it was 61.6 µM. The compound also gave a TGI in test [10] of over 100 µM.
On to `S=C(S)NCNC(=S)S.[Zn+2]`, for which the TGI in test [2], in test [3], in test [4], in test [5], in test [6] and in test [7] was over 100 µM in each case. For the same compound, the TGI in [9], in test [10] and in test [8] was over 100 µM in each case.
In the case of `COC(=O)C1=C(C(=O)NNc2ccccc2)N(c2cccnc2Cl)C(c2ccccc2)=CC1c1ccccc1` (configuration not stated), the TGI in test [1], in test [2], in test [3], in [4], in test [5] and in test [6] was over 100 µM throughout. Besides, the results for the TGI in test [7] and in test [10] were over 100 µM and 56 µM, respectively.
As for `COc1ccc(/C=C2\N=C(SC)N(CN3CCOCC3)C2=O)cc1`, the TGI in test [3], in test [4], in test [5], in [6], in [10] and in test [8] was over 100 µM in each case.
For `O=[N+]([O-])/C(C(Cl)=C(Cl)Cl)=C(/Cl)Sc1ccccc1`, the TGI is 34.6 µM in [2]; 3.4 µM in test [3]; 2.75 µM in test [4]; 4.47 µM in test [5]; 5.9 µM in [6]; 6.57 µM in test [7]. For the same compound, the results for the TGI in [9], in test [10] and in [8] were 9.86 µM, 37.6 µM and 2.35 µM, respectively.
With `O=C(Cn1c[n+](CC(=O)c2ccc(-c3ccccc3)cc2)c2ccccc21)Nc1cccc2cccnc12`, the GI50 is 1.73 µM in [5]; 2.01 µM in [6]; 2180 nM in test [7]; 1730 nM in test [10]; 18.7 µM in test [8]. Moreover, the TGI in [5] was 3.11 µM; in test [6] it was 3.74 µM; in test [7], 6.16 µM; in test [10], 3.26 µM; in test [8], 64.8 µM.
On to `CC12CC(c3ccccc3O1)C(C(=O)Nc1ccc(Cl)cc1Cl)C(=O)N2` (configuration not stated), for which the TGI in test [1], in [2], in test [4], in [5], in test [7] and in [10] was over 100 µM throughout. The compound further had a TGI in test [8] of over 100 µM.
With `CCC(/C=C/C1OC(=O)C=CC1C)=C\C(C)C/C=C/C(C)=C/C(C)C(=O)C(C)C(O)C(C)C/C(C)=C/C(=O)O` (configuration not stated), the GI50 in test [4] is 7.52 pM; in [5], 0.408 µM; in test [7] it was under 0.001 nM; in test [9], under 1 pM; in test [10], 0.0179 nM; in [8] it was 0.701 µM. The TGI in test [9] was 3.56 µM; in test [10] it was 2.39 µM; in test [8], 4.15 µM.
In the case of `CC(C)C(=O)OCC1OC(n2c(Br)nc3c(=O)[nH]c(N)nc32)C(OC(=O)C(C)C)C1OC(=O)C(C)C` (configuration not stated), the TGI in test [1] is over 100 µM; in test [2], 58 µM; in test [3], over 100 µM; in test [4], over 100 µM; in [10] it was 56.7 µM; in test [8], over 100 µM.
`CCOC(=O)NC(Nc1ccc(S(=O)(=O)Nc2nc(C)cc(C)n2)cc1)(C(=O)OCC)C(F)(F)F` (configuration not stated): the TGI in [1], in test [2], in [3], in test [4], in test [5] and in test [6] was over 100 µM throughout. The TGI in test [7], in test [9] and in [10] was over 100 µM each time.
For `CCC(C)OC(=O)/C(Br)=C1/OC(=O)c2ccccc2-c2ccccc21` (configuration not stated), the TGI was 37.1 µM in test [1]; 73.9 µM in [2]; 38.1 µM in test [4]; 56.2 µM in test [5]; 43.2 µM in [6]; over 100 µM in test [7]. Besides, the TGI in [9] was 21.5 µM; in test [10], over 100 µM; in [8] it was 71.4 µM.
Consider `O=c1c(/C=C/c2c(O)ccc3ccccc23)nnc2sc(-c3cccc(Br)c3)nn12`, for which the TGI was 56.7 µM in test [1]; over 100 µM in test [2]; over 100 µM in test [4]; 37.5 µM in [5]; 56.8 µM in test [7]; over 100 µM in test [10]. In [8], the TGI came out at 88.4 µM.
Regarding `CC(=O)Oc1ccc2c(C)cc(=O)oc2c1OC(C)=O`, the TGI in test [3] was over 100 µM; in [4] it was over 100 µM; in test [5] it was over 100 µM; in [6], 84.9 µM; in test [10] it was over 100 µM; in [8], 78.6 µM.
As for `COC(=O)C1=C(O)C(C(=O)OC)[C@]2(O)[C@H](C(=O)OC)[C@H]1C[C@@H](c1ccc(C(F)(F)F)cc1)[C@H]2C(=O)OC` (some centres not stated), the TGI in test [1] is over 100 µM; in test [2], over 100 µM; in test [3], over 100 µM; in test [4] it was 11.5 µM; in test [5], 10.9 µM; in test [6], 22.5 µM. Besides, the TGI in [7] is over 100 µM; in test [9] it was 6.5 µM; in test [10] it was 48.3 µM.
For `COc1ccc(P2(=S)OC(C)(C)C(C)(C)O2)cc1`, the TGI in test [2], in [3], in [5], in test [6], in [7] and in test [10] was over 100 µM throughout. In test [8], this compound had a TGI of over 100 µM.
In the case of `CN(CC(=O)O)c1ncc2c(n1)CCCC2`, the TGI in test [2], in test [3], in test [4], in [5], in test [6] and in test [7] was over 100 µM throughout. Also, the TGI in test [9], in test [10] and in test [8] was over 100 µM each time.
Consider `Cn1c(=O)n(C2(C)C[Se]C2)c2ccccc21`, for which the TGI in test [2], in test [4], in [5], in test [6], in test [7] and in test [9] was over 100 µM in each case. The same compound gave a TGI in test [10] of over 100 µM.
As to `CC(C)(C)OC(=O)[C@H]1CCC(=S)N1Cc1ccccc1`, the TGI in [2], in [3], in [4], in test [5], in [6] and in test [7] was over 100 µM in each case. Moreover, the TGI in [9], in test [10] and in [8] was over 100 µM throughout.
As for `COC(=O)c1ccccc1/C=C1\Cc2ccc(C)c(C)c2C1=O`, the TGI in [1], in test [2], in test [4], in test [5], in test [6] and in [7] was over 100 µM each time. For the same compound, the TGI in test [9], in test [10] and in test [8] was over 100 µM in each case.
For the compound `Cc1cc(S(=O)(=O)Nc2n[nH]c(N)n2)c(SCC(=O)O)cc1Cl`, the TGI in test [1], in test [2], in test [4], in [5], in [6] and in [7] was over 10 µM throughout. The TGI in [9], in test [10] and in test [8] was over 10 µM in each case.
With `O=Cc1[nH]c(=O)[nH]c(=O)c1C(=O)O`, the TGI in [2], in [3], in [4], in test [5], in test [6] and in test [7] was over 100 µM in each case. The TGI in [9], in [10] and in [8] was over 100 µM in each case.
Turning to `O=C(Nc1nc(C23CC4CC(CC(C4)C2)C3)cs1)c1cc2ccc(O)cc2oc1=O`, the TGI in test [2] was 52.7 µM; in test [3] it was 48.7 µM; in [4], 50.4 µM; in test [5], 39 µM; in [6], over 100 µM; in test [7], over 100 µM. For the same compound, the results for the TGI in test [9], in test [10] and in test [8] were 51.2 µM, 48.4 µM and 48.5 µM, respectively.
As to `O=C(O)[C@@H]1CCS(=O)(=O)N1`, the TGI in test [2], in test [3], in test [4], in test [5], in test [6] and in [7] was over 100 µM throughout. The TGI in test [9], in test [10] and in test [8] was over 100 µM in each case.
On to `Oc1[nH]c2ccccc2c1N=NC(=S)Nc1cccc(Cl)c1`, for which the TGI is 65.2 µM in test [2]; 52.3 µM in [3]; over 100 µM in test [4]; 18.8 µM in test [5]; 84.8 µM in [6]; 44.9 µM in test [7]. Besides, the results for the TGI in [9], in [10] and in test [8] were 48.7 µM, 29.2 µM and 8 µM, respectively.
For `Nc1ncnc2c1ncn2[C@@H]1C[C@@H]1CO`, the TGI in test [1], in test [2], in [3], in [10] and in test [8] was over 100 µM throughout.
